Experimental data from PubChem BioAssay (NCI).
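Interpolation was linear, between the two tested concentrations surrounding the appropriate level; five concentrations were tested over 48 hours in 96-well plates. The concentration for full growth arrest is given as TGI.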

Key:
Experiment in all cases: growth of human tumour cells (NCI), 48 h
MCF7 breast = test system: MCF7 breast
UACC-257 melanoma = test system: UACC-257 melanoma
PC-3 prostate = test system: PC-3 prostate
NCI/ADR-RES ovarian = test system: NCI/ADR-RES ovarian
LOX IMVI melanoma = test system: LOX IMVI melanoma
NCI-H522 lung = test system: NCI-H522 lung
HOP-62 NSCLC = test system: HOP-62 NSCLC
SK-MEL-28 melanoma = test system: SK-MEL-28 melanoma
A498 renal = test system: A498 renal
MOLT-4 leukemia = test system: MOLT-4 leukemia
HOP-92 NSCLC = test system: HOP-92 NSCLC
MDA-MB-435 = test system: MDA-MB-435
SNB-19 CNS = test system: SNB-19 CNS
SF-295 CNS = test system: SF-295 CNS
TK-10 renal = test system: TK-10 renal
U251 CNS = test system: U251 CNS
UACC-62 melanoma = test system: UACC-62 melanoma
SW-620 colon = test system: SW-620 colon
KM12 colon = test system: KM12 colon

| SMILES | TGI (MCF7 breast) | TGI (UACC-257 melanoma) | TGI (PC-3 prostate) | TGI (NCI/ADR-RES ovarian) | TGI (LOX IMVI melanoma) | TGI (NCI-H522 lung) | TGI (HOP-62 NSCLC) | TGI (SK-MEL-28 melanoma) | TGI (A498 renal) | TGI (MOLT-4 leukemia) | TGI (HOP-92 NSCLC) | TGI (MDA-MB-435) | TGI (SNB-19 CNS) | TGI (SF-295 CNS) | TGI (TK-10 renal) | TGI (U251 CNS) | TGI (UACC-62 melanoma) | TGI (SW-620 colon) | TGI (KM12 colon) |
| --- | --- | --- | --- | --- | --- | --- | --- | --- | --- | --- | --- | --- | --- | --- | --- | --- | --- | --- | --- |
| CN(C)C=Nc1c2ccccc2nc2ccccc12 | 12.1 µM | 9.3 µM | 14.5 µM | 34.6 µM | 7.13 µM | 4.99 µM | 25.4 µM | 5.42 µM | 21 µM | 9.05 µM | 22.3 µM | 15.1 µM | 17.9 µM | 21.6 µM | 40 µM | 15 µM | 7.65 µM | – | – |
| O/N=C(/CC(O)(C(F)(F)F)C(F)(F)F)c1ccccc1 | > 10 µM | > 10 µM | > 10 µM | > 10 µM | > 10 µM | > 10 µM | > 10 µM | > 10 µM | > 10 µM | > 10 µM | > 10 µM | > 10 µM | > 10 µM | > 10 µM | > 10 µM | > 10 µM | > 10 µM | > 10 µM | > 10 µM |
| Cc1cc2nc(C=C(C(F)(F)F)C(F)(F)F)sc2cc1C | 12.5 µM | 13.6 µM | 4.98 µM | 14.6 µM | 4.99 µM | 1.01 µM | 7.59 µM | 14.5 µM | 28.5 µM | > 100 µM | 16.2 µM | 7.07 µM | 9.89 µM | 13.4 µM | 5.91 µM | 4.21 µM | 4.98 µM | 10.7 µM | 4.41 µM |
| CCC/C(Cl)=N/OC(=O)Nc1cc(C(F)(F)F)ccc1OC | 27.7 µM | 30.9 µM | 29.7 µM | 33.1 µM | 16.2 µM | 2.99 µM | 32.2 µM | 28.3 µM | 28.4 µM | 6.01 µM | 6.56 µM | 26.3 µM | 31.5 µM | 32.3 µM | 32.5 µM | 31.6 µM | 28.8 µM | 11.4 µM | 33.5 µM |
| C=C1C[C@@H]2O[C@H]3[C@H]4[C@@H](C[C@@H](C)[C@@H](OC(C)=O)[C@H]42)[C@@H](C)CO[C@@]3(C)[C@H](OC(=O)CCCCCCC)C[C@H]1O | 40.4 µM | 32.6 µM | 28.7 µM | 30.7 µM | 26.6 µM | 34.4 µM | 32.9 µM | 32.7 µM | 30.8 µM | 52.7 µM | 30.4 µM | 34.8 µM | 32.4 µM | 36.4 µM | 32.8 µM | 30.6 µM | 31.4 µM | 40.3 µM | 31.5 µM |
| O=C1OC(C2Cc3ccc4c(c3C2=O)CCC4)c2ccccc21 (centres undefined) | > 100 µM | > 100 µM | > 100 µM | > 100 µM | > 100 µM | > 100 µM | > 100 µM | > 100 µM | > 100 µM | > 100 µM | > 100 µM | > 100 µM | > 100 µM | > 100 µM | > 100 µM | > 100 µM | > 100 µM | > 100 µM | > 100 µM |
| CC(=O)OCC1OC(N2C(c3ccccc3)=CC(c3ccco3)C(C#N)=C2S)C(OC(C)=O)C(OC(C)=O)C1OC(C)=O (centres undefined) | > 82.4 µM | > 100 µM | > 38.6 µM | 39.9 µM | > 46.4 µM | > 39.8 µM | 19.5 µM | > 75.5 µM | > 63.3 µM | > 75.4 µM | 26.9 µM | > 70.5 µM | 38.7 µM | > 70.3 µM | 37.5 µM | 8.6 µM | 65 µM | 4.2 µM | > 100 µM |
| O=C1/C(=C/c2ccc(O)cc2)CCc2ccc([N+](=O)[O-])cc21 | > 100 µM | > 100 µM | > 100 µM | > 100 µM | > 100 µM | > 30.8 µM | > 100 µM | > 100 µM | > 100 µM | > 100 µM | > 89.6 µM | > 100 µM | 98.7 µM | > 100 µM | > 100 µM | > 100 µM | > 100 µM | > 100 µM | > 100 µM |
| COC(=O)c1ccccc1CC1Cc2cc3c(cc2C1=O)CCC3 (centres undefined) | 65.3 µM | 71.5 µM | > 100 µM | 21.8 µM | 31.1 µM | 27.1 µM | > 94.4 µM | > 100 µM | > 61.1 µM | 33.9 µM | 42.4 µM | 10.7 µM | > 100 µM | 77.4 µM | 79.7 µM | 42.3 µM | 69.6 µM | > 100 µM | > 100 µM |
| O=C1C2CCCCC2C(=O)N1n1c(-c2ccccc2)n[nH]c1=O (centres undefined) | > 100 µM | > 100 µM | > 100 µM | > 100 µM | > 100 µM | > 100 µM | > 100 µM | – | > 100 µM | > 100 µM | > 100 µM | > 100 µM | > 100 µM | > 100 µM | > 100 µM | > 100 µM | > 100 µM | > 100 µM | > 100 µM |
| COc1ccc2c(c1)-c1c(c3cc(OC)ccc3n1CCCN(C)C)CC2 | 26.5 µM | 11.6 µM | 25.3 µM | 31.4 µM | 20.9 µM | 25.7 µM | 29.2 µM | 13 µM | 31.3 µM | 30.9 µM | 33.8 µM | 15.1 µM | 34 µM | 16.8 µM | 39.7 µM | 27 µM | 20.6 µM | 32.1 µM | 21.8 µM |
| O=S1(=O)c2ccccc2C(Nc2ccccc2)N1c1ccccc1 (centres undefined) | > 100 µM | > 100 µM | > 100 µM | > 100 µM | > 100 µM | 67.9 µM | > 100 µM | > 100 µM | > 100 µM | > 100 µM | > 100 µM | > 100 µM | – | > 100 µM | > 100 µM | > 100 µM | > 100 µM | > 100 µM | > 100 µM |
